Read-outs that look alike come from different tables or passages of the source.
What was measured:
[1] = test system: mouse leukemia cells L1210; assay: Antitumor activity against mouse leukemia L1210, intraperitoneal administration; conditions: for Max. ILS (%) / ILS30 (dose required to increase lifespan 30%): i.p. once a day for 5 consecutive days
Source text: Antitumor activity of 5-fluoro-2'-deoxyuridine derivatives (in intraperitoneal administration)
Experiments were made with the 5-fluoro-2'-deoxyuridine derivatives of this invention in order to know its antitumor effect against mouse leukemia cells L1210 in comparison with its parent compound 5-fluoro-2'-deoxyuridine and other known antitumor agents.
BDF1 mice (male, 6-week-old, Ca 24 g, in groups of 5 mice), which were abdominally implanted with 10^5 cells of mouse leukemia L1210, which had been collected after 7-day cultivation in other mice, were used in the experiments.
The respective agents were given to the experimental mice intraperitoneally once a day for 5 consecutive days starting 24 hours after the implantation of tumor cells.
The antitumor effect of the respective agents were indicated by the rate of increase in the length of the survival period obtained from the groups given the agents in contrast with the length of the survival period of the control group (not given the agents).
The dose, which is required to increase the lifespan of the experimental mice 30% as compared with the control group, is indicated by ILS30 and the dose, which is required to effect the maximum increase of lifespan (Max. ILS(%)), is indicated by ILS max. ILS max./ILS30 is to represent the therapeutic index which indicates the safety of the agents.

[2] = Rate of hydrolysis of 5-fluoro-2'-deoxyuridine derivatives by esterase; type: in vitro ADME, porcine; conditions: pig, liver esterase, pH 7.00, 37° C., read-out: t 1/2 (time for 1/2 of the derivative to be converted into parent compound)
Protocol: Rate of hydrolysis of 5-fluoro-2'-deoxyuridine derivatives by esterase […] A 10 μg/ml isotonic solution of the experimental compound in a phosphate buffer (pH 7.00) was prepared and the […] (manufactured by Sigma) extracted from the porcine liver was added to the solution at 37° C. in such a way as to provide the enzyme concentration ranging from 0.03 units/ml to 150 units/ml. Then the sample (10 μl) was injected into an HPLC column periodically to determine the amount of 5-fluoro-2'-deoxyuridine release by the enzyme reaction.

mouse leukemia L1210 = assay: Antitumor activity against mouse leukemia L1210, oral administration; type: in vivo, BDF1 mice; conditions: for Antitumor effect in oral administration compared with 5-fluoro-2'-deoxyuridine and 3',5'-dioctanoyl-5-fluoro-2'-deoxyuridine: L1210-bearing mice, result in words
Protocol: (§1) The respective agents were administered orally three times, i.e. on the first day, third day, and fifth day, starting 24 hours after the implantation of tumor cells.

[3] = Change in body weight of L1210-bearing mice, oral administration; type: in vivo, BDF1 mice; conditions: days 1-4
Protocol: as §1

[4] = Release of FUdR from the compound due to the enzyme system in the plasma; type: in vitro ADME; conditions: 4×10^-5 M compound (FUdR 9.85 μg/ml), 20% rat plasma, pH 7.0, 37° C.
Protocol: Behavior to release FUdR from the compound due to the enzyme system in the plasma
The release rates of 5-fluoro-2'-deoxyuridine (FUdR) from the compound of this invention at 37° C. in the rat plasma (20%), diluted with 0.1M phosphate buffer, pH 7.0, were measured.
The compound of this invention was added to the plasma diluted with an isotonic solution of phosphate buffer to a concentration of 4×10^-5 M (corresponding to FUdR 9.85 μg/ml) and was incubated at 37° C. The sample (10 μl) was injected into an HPLC column periodically to determine the amount (μg/ml) of 5-fluoro-2'-deoxyuridine released by the enzymatic reaction.

[5] = pH 7, enzyme concentration 6.0 units/ml
[6] = days 1, 3, 5, dose 10 mg/kg/day
[7] = days 1, 3, 5, dose 30 mg/kg/day
[8] = days 1, 3, 5, dose 100 mg/kg/day
[9] = days 1, 3, 5, dose 300 mg/kg/day
[10] = pH 7, enzyme concentration 150.0 units/ml
[11] = pH 7, enzyme concentration 0.045 units/ml

SMILES | Release rate of 5-fluoro-2'-deoxyuridine ([4]; after 100 min) [µg/mL] | Max. ILS (%) ([1]; L1210-bearing BDF1 mice) | Therapeutic index (ILS max./ILS30) ([1]; mouse, in vivo, ip) | ILS30 (dose required to increase lifespan 30%) ([1]; L1210-bearing BDF1 mice) [µmol·days/kg] | ILS (%) (mouse leukemia L1210; [6]) | ILS (%) (mouse leukemia L1210; [7]) | ILS (%) (mouse leukemia L1210; [8]) | ILS (%) (mouse leukemia L1210; [9]) | Change in body weight (1-4 d, g/mouse) ([3]; dose 10 mg/kg/day) | Change in body weight (1-4 d, g/mouse) ([3]; dose 30 mg/kg/day) | Change in body weight (1-4 d, g/mouse) ([3]; dose 100 mg/kg/day) [g/mouse] | Change in body weight (1-4 d, g/mouse) ([3]; dose 300 mg/kg/day) [g/mouse] | other results
O=C(O)CCCCC(=O)OC[C@H]1O[C@@H](n2cc(F)c(=O)[nH]c2=O)C[C@@H]1OC(=O)CCCCC(=O)O [3',5'-diadipoyl-5-fluoro-2'-deoxyuridine] |  | 58 | 20.0 |  |  |  |  |  |  |  |  |  | half-life [2, 5]: 439 min; half-life ([2]; pH 7, enzyme concentration 12.0 units/ml): 216 min
CCCC(=O)OC[C@H]1O[C@@H](n2cc(F)c(=O)[nH]c2=O)C[C@@H]1OC(=O)CCC [3',5'-dibutyryl-5-fluoro-2'-deoxyuridine] |  |  |  |  |  |  |  |  |  |  |  |  | half-life ([2]; pH 7, enzyme concentration 0.75 units/ml): 42.4 min; half-life ([2]; pH 7, enzyme concentration 1.50 units/ml): 21.7 min
O=C(O)CCCC(=O)OC[C@H]1O[C@@H](n2cc(F)c(=O)[nH]c2=O)C[C@@H]1OC(=O)CCCC(=O)O [3',5'-diglutaryl-5-fluoro-2'-deoxyuridine] |  |  |  |  |  |  |  |  |  |  |  |  | half-life [2, 10]: 437 min
CCCCCCCCCCCCCCCC(=O)OC[C@H]1O[C@@H](n2cc(F)c(=O)[nH]c2=O)C[C@@H]1OC(=O)CCCCCCCCCCCCCCC [3',5'-dipalmitoyl-5-fluoro-2'-deoxyuridine, reference compound] |  | 55 | 5.0 | 0.8 |  |  |  |  |  |  |  |  | 
CCC(=O)OC[C@H]1O[C@@H](n2cc(F)c(=O)[nH]c2=O)C[C@@H]1OC(=O)CC [3',5'-dipropanoyl-5-fluoro-2'-deoxyuridine] |  |  |  |  |  |  |  |  |  |  |  |  | half-life ([2]; pH 7, enzyme concentration 3.0 units/ml): 47.4 min; half-life [2, 5]: 24.2 min
O=C(O)CCC(=O)OC[C@H]1O[C@@H](n2cc(F)c(=O)[nH]c2=O)C[C@@H]1OC(=O)CCC(=O)O [3',5'-disuccinyl-5-fluoro-2'-deoxyuridine] |  |  |  |  |  |  |  |  |  |  |  |  | half-life [2, 10]: 3220 min
CCCCCCCCCCCCCC(=O)OC[C@H]1O[C@@H](n2cc(F)c(=O)[nH]c2=O)C[C@@H]1OC(=O)CCCCCCCCCCCCC [3',5'-ditetradecanoyl-5-fluoro-2'-deoxyuridine] |  | 61 |  |  | 27 | 33 | 17 |  | -0.8 g/mouse | -1.4 g/mouse | -2.4 |  | Antitumor effect in oral administration compared with 5-fluoro-2'-deoxyuridine and 3',5'-dioctanoyl-5-fluoro-2'-deoxyuridine (mouse leukemia L1210): much higher antitumor effect; ILS (%) (mouse leukemia L1210; days 1, 3, 5, dose 1 mg/kg/day): 3%; ILS (%) (mouse leukemia L1210; days 1, 3, 5, dose 3 mg/kg/day): 3%; Change in body weight (1-4 d, g/mouse) ([3]; dose 1 mg/kg/day): +2.2 g/mouse; Change in body weight (1-4 d, g/mouse) ([3]; dose 3 mg/kg/day): +2.0 g/mouse
O=c1[nH]c(=O)n([C@H]2C[C@H](O)[C@@H](CO)O2)cc1F [5-fluoro-2'-deoxyuridine] |  | 54 |  | 200 | 15 | 10 | 15 | 10 | +0.6 g/mouse | +1.8 g/mouse | -4.2 | -5.2 | Therapeutic index (ILS max./ILS30) ([1]; i.p., L1210-bearing BDF1 mice): 2.0

Further lines, with some results ahead:

Release rate of 5-fluoro-2'-deoxyuridine ([4]; after 100 min) [µg/mL] | SMILES | Max. ILS (%) ([1]; L1210-bearing BDF1 mice) | Therapeutic index (ILS max./ILS30) ([1]; mouse, in vivo, ip) | ILS30 (dose required to increase lifespan 30%) ([1]; L1210-bearing BDF1 mice) [µmol·days/kg] | ILS (%) (mouse leukemia L1210; [6]) | ILS (%) (mouse leukemia L1210; [7]) | ILS (%) (mouse leukemia L1210; [8]) | ILS (%) (mouse leukemia L1210; [9]) | Change in body weight (1-4 d, g/mouse) ([3]; dose 10 mg/kg/day) | Change in body weight (1-4 d, g/mouse) ([3]; dose 30 mg/kg/day) | Change in body weight (1-4 d, g/mouse) ([3]; dose 100 mg/kg/day) [g/mouse] | Change in body weight (1-4 d, g/mouse) ([3]; dose 300 mg/kg/day) [g/mouse] | other results
4.7 | CCCCCCCCCC(=O)OC[C@H]1O[C@@H](n2cc(F)c(=O)[nH]c2=O)C[C@@H]1OC(=O)CCCCCCCCC [3',5'-didecanoyl-5-fluoro-2'-deoxyuridine] | 52 | 10.0 | 18 | 7 | 26 | 15 | 20 | -0.8 g/mouse | -1.4 g/mouse | -2.4 | -3.8 | Antitumor effect in oral administration compared with 5-fluoro-2'-deoxyuridine and 3',5'-dioctanoyl-5-fluoro-2'-deoxyuridine (mouse leukemia L1210): much higher antitumor effect; half-life ([2]; pH 7, enzyme concentration 0.3 units/ml): 140 min; half-life ([2]; pH 7, enzyme concentration 0.6 units/ml): 72 min; Release rate of 5-fluoro-2'-deoxyuridine ([4]; after 200 min): 6.7 µg/mL; Release rate of 5-fluoro-2'-deoxyuridine ([4]; after 300 min): 7.8 µg/mL; Release rate of 5-fluoro-2'-deoxyuridine ([4]; after 400 min): 8.5 µg/mL; Release rate of 5-fluoro-2'-deoxyuridine ([4]; after 500 min): 9.3 µg/mL
1.2 | CCCCCCCCCCCC(=O)OC[C@H]1O[C@@H](n2cc(F)c(=O)[nH]c2=O)C[C@@H]1OC(=O)CCCCCCCCCCC [3',5'-didodecanoyl-5-fluoro-2'-deoxyuridine] | 62 | 45.0 | 1.0 | 0 | 5 | 15 | 40 | +1.0 g/mouse | +1.0 g/mouse | 0 | -2.6 | Antitumor effect in oral administration compared with 5-fluoro-2'-deoxyuridine and 3',5'-dioctanoyl-5-fluoro-2'-deoxyuridine (mouse leukemia L1210): much higher antitumor effect; half-life [2, 10]: 4000 min; Release rate of 5-fluoro-2'-deoxyuridine ([4]; after 200 min): 2.2 µg/mL; Release rate of 5-fluoro-2'-deoxyuridine ([4]; after 300 min): 2.9 µg/mL; Release rate of 5-fluoro-2'-deoxyuridine ([4]; after 400 min): 3.8 µg/mL; Release rate of 5-fluoro-2'-deoxyuridine ([4]; after 500 min): 4.2 µg/mL
7.8 | CCCCCC(=O)OC[C@H]1O[C@@H](n2cc(F)c(=O)[nH]c2=O)C[C@@H]1OC(=O)CCCCC [3',5'-dihexanoyl-5-fluoro-2'-deoxyuridine, reference compound] | 38 | 4.3 | 10 |  |  |  |  |  |  |  |  | half-life [2, 11]: 32.5 min; half-life ([2]; pH 7, enzyme concentration 0.075 units/ml): 24 min; half-life ([2]; pH 7, enzyme concentration 0.15 units/ml): 10 min; Release rate of 5-fluoro-2'-deoxyuridine ([4]; after 200 min): 9.85 µg/mL
9.85 | CCCCCCCC(=O)OC[C@H]1O[C@@H](n2cc(F)c(=O)[nH]c2=O)C[C@@H]1OC(=O)CCCCCCC [3',5'-dioctanoyl-5-fluoro-2'-deoxyuridine, reference compound] |  |  |  | -5 | 3 | -5 | 5 | +1.8 g/mouse | +1.6 g/mouse | -2.8 | -2.2 | half-life ([2]; pH 7, enzyme concentration 0.03 units/ml): 18.2 min; half-life [2, 11]: 15.6 min

From patent publication US4757139A, “5-fluoro-2'-deoxyuridine derivative, processes for preparing same and antitumor composition containing the same” (Teijin Limited, priority 1983, dated 1988)
